One data set concerns P-388 leukemia. The data set is described as follows: antitumor activity, intravenously implanted P-388 leukemia. It is filed as in vivo, mice.
The nature of the next data set: toxicity in mice. Conditions: mouse, in vivo.
[1] abbreviates: iv days 1,4,7, doses as MST lines, same order.
Setting [2] is: ip qd 1→9, doses as T/C lines, same order.
[3] abbreviates: ip qd 1→11, doses as T/C lines, same order.

Consider two molecules from patent publication US4675187A, “BBM-1675, a new antibiotic complex” (priority 1985, dated 1987).

Several values for one entry are separate records, joined by “and”; a condition that tells them apart may be missing. Equal values may be shown once. Read-outs that look alike come from different tables or passages of the source.

Experimental for B16 melanoma: (§1) Lymphocytic leukemia P-388, lymphoid leukemia L-1210, melanotic melanoma B16 and Lewis lung carcinoma were implanted intraperitoneally into male BDF1 mice at an inoculum size of 10^6, 10^5, 5×10^5 and 10^6 cells per mouse, respectively. Graded doses of test compounds were administered to the mice intraperitoneally 24 hours after the tumor inoculation.
(§2) Death or survival of the treated and non-treated mice was recorded daily, and the median survival time (MST) was calculated for each of the test (T) and control (C) groups.
Experimental for Lewis lung carcinoma: as §1, §2

For orientation: T/C means the result in the treated group divided by that in the control group, in per cent. Turning to `COc1cccc2c1C(=O)c1c(O)c3c(c(O)c1C2=O)C[C@@](O)(C(=O)CO)C[C@@H]3O[C@H]1C[C@H](N)[C@H](O)[C@H](C)O1` [Adriamycin, adriamycin], the T/C in the data set with P-388 leukemia (iv days 1,4,7, 1 mg/kg/day) was 100%; in the data set with P-388 leukemia (iv days 1,4,7, 10 mg/kg/day), 100%. The “Survivors on day 5” value in the data set with P-388 leukemia (setting [1]) is 0/6 and 6/6. Further, in the data set with P-388 leukemia (setting [1]), the “Survivors on day 45” value is on record as 0/6.

One may read the LD50 as the dose at which mortality reaches 50%. Lower therefore signals a more toxic substance. Consider `CO[C@@H]1[C@H](O)C[C@@H](O[C@@H]2C[C@H](Oc3cc4cc5c(c(O)c4c(O)c3C)C(=O)[C@@H](O[C@H]3C[C@@H](O[C@H]4C[C@@H](O[C@H]6C[C@](C)(O)[C@@H](OC(C)=O)[C@H](C)O6)[C@H](O)[C@@H](C)O4)[C@H](O)[C@@H](C)O3)[C@H]([C@H](OC)C(=O)[C@@H](O)[C@@H](C)O)C5)O[C@H](C)[C@@H]2OC(C)=O)O[C@@H]1C` [Chromomycin A3, chromomycin A3], for which the LD50 worked out at 0.23 mg/kg in “toxicity in mice” (ip, LD50, multiple dose (qd 1→9) i.p.); 0.81 mg/kg in “toxicity in mice” (ip, LD50, single dose i.p.); 0.41 mg/kg in “toxicity in mice” (iv, LD50, single dose i.v.). Besides, the T/C stood at 109% in the data set with B16 melanoma (ip qd 1→9, 0.003 mg/kg/day) and 105% in the data set with Lewis lung carcinoma (ip qd 1→11, 0.003 mg/kg/day). The “Average wt. change on day 5” value with B16 melanoma (setting [2]) is “+2.2 g”; in the data set on Lewis lung carcinoma (mouse, in vivo, ip), “+1.7 g”. The MST in the data set with B16 melanoma (setting [2]) is 25.5 days and 23.0 days and 21.0 days and 18.0 days; with Lewis lung carcinoma (setting [3]) it was 21.5 days and 17.0 days and 11.5 days. For the same molecule, the “Survivors on day 5” value with B16 melanoma (setting [2]) is 6/6; with Lewis lung carcinoma (setting [3]), 6/6; in the data set on Lewis lung carcinoma (mouse, in vivo, ip), 5/5. Besides, the “Survivors on day 45” value in the data set on B16 melanoma (setting [2]) is 0/6; in the data set with Lewis lung carcinoma (setting [3]) it was 1/6 and 0/5 and 0/6.
